Holding throughout (assay type): in vivo
The test system of test [1] is Holstein cows. Briefly: Milk production and composition of postpartum cows fed CLA amide supplements. An excerpt:
(§1) One hundred and twenty Holstein cows who were to begin their second or greater lactation are randomly selected to receive one of four Conjugated Linoleic Acid (CLA) supplementation regimens. Control cows receive no supplemental CLA (0 CLA), cows offered Treatment 1 receive the cis-9, trans-11 CLA isomer (9, 11 CLA), cows offered Treatment 2 receive the trans-10, cis-12 CLA isomer (10, 12 CLA) and cows offered Treatment 3 receive both isomers in a 50:50 mix (mixed CLA).
(§2) Isomers of CLA are obtained at 85% purity and are converted to their amide form (unsubstituted) for a rumen bypass rate of 65%. The remaining 15% of the 85% pure CLA isomers are the other isomers of CLA. Treatments 1 and 2 are formulated to deliver 7 grams of each CLA isomer per cow/day at the intestinal level. Therefore, 13 g/cow/day of the respective CLA amides are included in the daily rations offered as Total Mixed Rations (TMR) (i.e., 13 g CLA amide×85% purity×65% rumen bypass=7.18 g intestinal CLA isomer). Treatment 3 is formulated to deliver 7 grams of both isomers per cow per day in the intestine resulting in a 26 g supplement.
Cows are fed their CLA treatments beginning 7 days prepartum and remain on the supplement until 35 days postpartum. To maintain the diets isoenergetic with equal amounts of added fat to the diets, the CLA amides are substituted for Megalac (calcium salts of palm fatty acids). Postpartum diets are offered immediately postpartum.
Prepartum diets are formulated to meet or exceed NRC (2000) requirements at a daily intake of 10.6 kg of DM. This is done to assure that all feed is consumed in a 24-hour period. Postpartum diets are also formulated to meet or exceed requirements for a cow producing (ca.) 45 kg of milk daily at ad libitum consumption of DM.
Cows are milked four times per day to assure maximum expression of production potential and are housed and fed in individual tie-stalls to obtain individual estimates of DMI.
(§3) Other measurements include: Start-up milk production (defined as colostrum milk secreted in the first 24 hours postpartum) analyzed for milk fat and fatty acid composition; Daily milk production and composition (total fat and protein); Daily dry matter intake (DMI); Calculated net energy balance defined as net energy intake minus net energy secreted in milk expressed in megacalories (Mcal) per day.

Test [2] concerns Holstein cows. Briefly: Calculated net energy balance (net energy intake minus net energy secreted in milk).
Excerpt: as §1
Isomers of CLA are obtained at 85% purity and are converted to their amide form (unsubstituted) for a rumen bypass rate of 65%. The remaining 15% of the 85% pure CLA isomers are the other isomers of CLA. Treatments 1 and 2 are formulated to deliver 7 grams of each CLA isomer per cow/day at the intestinal level. […]
as §3
Calculated average energy balance postpartum is actual daily […] minus actual daily milk energy outputs.

Test [3] concerns mammary glands of Holstein cows. Nature of the test: Mammary gland total parenchymal DNA and RNA-to-DNA ratio at day 15 postpartum. To be noted: excised mammary glands, five cows per treatment.
Excerpt: as §1, §2
Cows are fed their CLA treatments beginning 7 days prepartum and remain on the supplement until 35 days postpartum. To maintain the diets isoenergetic with equal amounts of added fat to the diets, the CLA amides are substituted for Megalac (calcium salts of palm fatty acids). […]

Setting [4] is: average for the next 34 days postpartum.
Where [5] appears, read: colostrum, first 24 hours postpartum.

Regarding `CCCCCC/C=C/C=C\CCCCCCCC(=O)O` [9, 11 CLA, cis-9, trans-11 conjugated linoleic acid], in the test with Holstein cows [1] (setting [4]), the “FCM (fat corrected milk, 4% fat)” value is 36.88a kg/d; the Milk is listed as 40.2a kg/d; the Milk fat is on record as 1.04a kg/d; the Milk fat % is 3.45a %. Moreover, the “SCFA + MCFA:LCFA (ratio of short plus medium chain to long chain fatty acids in milk fat)” value with Holstein cows [1] (setting [4]) is reported as 58.42b. Besides, in the test on Holstein cows [1] (setting [5]), the “Startup milk fat %” value worked out at 8.9c % and the “Startup milk fat kg” value amounted to 1.44b kg. The compound also came in with a Startup milk with Holstein cows [1] (colostrum, first 24 hours postpartum, 7 g of each CLA isomer/cow/day at intestinal level) of 20.2a kg. Moreover, the “Startup FCM (fat corrected milk, 4% fat)” value in the test with Holstein cows [1] (first 24 hours postpartum) was 35.05c kg. Moreover, the “Calculated average energy blance postpartum” value in the test on Holstein cows [2] (setting [4]) was −1.1c Mcal/d. Also, the “Calculated energy balance at the end of day-1 postpartum” value in the test with Holstein cows [2] (end of day-1 postpartum) is recorded as −3.6b Mcal. The “Total parenchymal DNA, lower compared to 0 CLA group” value in test [3] worked out at 18%.

These data come from US6818235B2, “Beneficial control of energy balance in periparturient cattle” (Church & Dwight Co., Inc., priority 2001, dated 2004).
